This note sets out measurements from patent US8927533B2, “Thio derivatives bearing lactams as potent HDAC inhibitors and their uses as medicaments” (SIGMA-TAU Industrie Farmaceutiche Riunite S.p.A., priority 2011, dated 2015).

Structures are written as SMILES.

Data set [1] concerns eleven HDAC isolated human isoforms. Put plainly: HDAC profiling, whole isoform panel. The class given is biochemical. How it is done: (§1) Each compound was dissolved in DMSO, and progressively diluted solutions were used for testing. […] Upon its deacetylation, the fluorophore was released given rise to fluorescence emission which was detected by a fluorimeter, and the IC50 values of the compounds were determined by analyzing dose-response inhibition curves.

The next data set deals with T1, HDAC6 (Homo sapiens, UniProt Q9UBN7).
T1 sequence (Q9UBN7 1-1215): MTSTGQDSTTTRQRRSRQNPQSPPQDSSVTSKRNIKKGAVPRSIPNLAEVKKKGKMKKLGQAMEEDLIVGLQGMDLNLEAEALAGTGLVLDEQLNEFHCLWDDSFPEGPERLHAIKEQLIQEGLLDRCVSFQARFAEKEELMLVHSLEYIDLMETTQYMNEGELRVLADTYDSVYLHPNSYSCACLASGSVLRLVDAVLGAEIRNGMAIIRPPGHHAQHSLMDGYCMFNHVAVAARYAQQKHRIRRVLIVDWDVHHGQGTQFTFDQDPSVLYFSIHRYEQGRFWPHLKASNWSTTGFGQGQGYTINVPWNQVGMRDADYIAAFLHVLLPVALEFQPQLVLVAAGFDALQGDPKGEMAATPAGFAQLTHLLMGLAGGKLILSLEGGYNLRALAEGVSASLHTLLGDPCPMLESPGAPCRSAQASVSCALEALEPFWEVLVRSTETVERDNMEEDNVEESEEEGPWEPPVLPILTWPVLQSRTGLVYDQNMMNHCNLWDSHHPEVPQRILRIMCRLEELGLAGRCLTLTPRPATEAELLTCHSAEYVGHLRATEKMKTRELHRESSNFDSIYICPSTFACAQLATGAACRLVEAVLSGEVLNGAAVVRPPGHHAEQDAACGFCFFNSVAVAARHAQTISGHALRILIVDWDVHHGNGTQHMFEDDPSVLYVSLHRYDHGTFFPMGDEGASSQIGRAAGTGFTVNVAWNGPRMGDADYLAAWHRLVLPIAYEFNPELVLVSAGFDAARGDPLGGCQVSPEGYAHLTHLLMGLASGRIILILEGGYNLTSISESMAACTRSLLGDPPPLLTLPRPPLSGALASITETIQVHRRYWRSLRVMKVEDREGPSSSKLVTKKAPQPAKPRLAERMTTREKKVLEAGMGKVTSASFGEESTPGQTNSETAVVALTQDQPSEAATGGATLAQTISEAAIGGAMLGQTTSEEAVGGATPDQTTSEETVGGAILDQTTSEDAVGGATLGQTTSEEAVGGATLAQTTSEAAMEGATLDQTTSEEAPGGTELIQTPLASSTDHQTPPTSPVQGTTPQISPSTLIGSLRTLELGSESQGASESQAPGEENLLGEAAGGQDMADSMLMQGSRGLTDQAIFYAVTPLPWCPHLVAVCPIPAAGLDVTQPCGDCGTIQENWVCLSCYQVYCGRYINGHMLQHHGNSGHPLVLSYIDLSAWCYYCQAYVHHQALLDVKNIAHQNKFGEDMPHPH
The data set is described as follows: HDAC enzymatic assay, HDAC6. The class given is biochemical. Here is the method:
as §1

Data set [2] deals with NCI-H460 non-small cell lung carcinoma cells. Put plainly: Cytotoxicity, sulphorodamine B, H460. Conditions: Homo sapiens, NCI-H460, read-out: H460 cell line IC50 (μM).
Experimental: (§4) The plates were incubated for 24 h at 37° C., after which they were washed 3 times by removal of the supernatant and addition of PBS. The plates were then incubated for further 48 h at 37° C. 200 μl PBS and 50 μl of cold 80% TCA were added and the plates were incubated on ice for at least 1 h. TCA was removed and the plates were washed 3 times by immersion in distilled-water. They were then dried on paper at 40° C. for 5 min. 200 μl of 0.4% sulphorodamine B in 1% acetic acid were added. The plates were incubated at room temperature for further 30 min. Sulphorodamine B was removed, and the plates were washed 3 times by immersion in 1% acetic acid and were dried on paper and at 40° C. for 5 min. Then 200 μl Tris 10 mM were added. The plates were kept under magnetic stirring for 20 min. Cell survival was determined by means of optical density by a Multiskan spectrofluorimeter at 540 nm. The amount of cells killed was calculated as the percentage decrease in sulphorodamine B binding compared to control cultures.
Data set [3] deals with HCT116 colon cancer cells. Put plainly: Cytotoxicity, sulphorodamine B, HCT116. Conditions: Homo sapiens, HCT-116, read-out: HCT116 cell line IC50 (μM).
Experimental: as §4
Data set [4] has as its system H929 multiple myeloma cells. The data set is described as follows: Antitumour activity, H929 xenograft (Example 48). The class given is in vivo, CD1 nude mice. Conditions: 50 mg/10 ml/kg i.p., qd×5/w×3w.
Experimental: (§5) The tested derivatives were administered as a suspension in PBS/DMSO/Cremophor EL (Sigma): 85/10/5 (volume percentage). The antitumour activity was determined by measuring tumour diameters with a Vernier calliper according to the Formula TV=d^2×D/2
(§6) where d and D are the shortest and longest diameters, respectively.
(§7) When tumours reached a volume of about 1000 mm^3, mice were sacrificed by cervical dislocation. The efficacy of the drug was assessed as the tumour volume inhibition according to the Formula reported underneath:
(§8) Body weight recording was carried out to evaluate body weight loss as calculated in the equation underneath:
(§9) Wherein BW day x corresponds to the mean weight at day x of the experiment meanwhile BW day 1 corresponds to the mean weight at the first day of the experiment.
Data set [5] concerns HCT116 colon cancer cells. Put plainly: Antitumour activity, HCT116 xenograft (Example 48). It counts as in vivo, CD1 nude mice. Conditions: 50 mg/10 ml/kg i.p., qd×5/w×3w.
Experimental: as §5, §6, §7, §8, §9
Data set [6] has as its system α-tubulin acetylation in NCI-H460 cells. Put plainly: Tubulin acetylation, Western Blot. Conditions: cytoplasmic extracts.
Experimental: (§10) The experiments were conducted using ECL Plus Western blotting detection reagents (from Amersham Biosciences) and the intensity of the bands were analyzed by using a computed phosphoimage analyzer (PhosphoImager; Molecular Dynamics, Sunnyvale, Calif., U.S.A.).
For data set [7], the system named is K562 chronic myeloid leukemia cells. Put plainly: Cytotoxicity extended panel, K562. Conditions: Homo sapiens, suspension cells, 72 h. It counts as cell-based. How it is done: (§2) Cells were seeded in 96-well tissue culture plates at approximately 10% confluence. They were allowed to attach and recover for at least 24 h. Compounds of the present invention were then added to each well at various concentrations in order to define cell survival inhibition IC50. The plates were incubated for 72 h at 37° C., after which time they were washed 3 times by removal of the supernatant. 200 μl of PBS and 50 μl of cold 80% TCA were added and the plates were incubated on ice for at least 1 h. TCA was removed and the plates were washed 3 times by immersion in distilled water. They were then dried on paper at 40° C. for 5 min. 200 μl of 0.4% sulphorodamine B in 1% acetic acid were added. The plates were incubated at room temperature for further 30 min. Sulphorodamine B was removed, and the plates were washed 3 times by immersion in 1% acetic acid and were dried on paper at 40° C. for 5 min. Then 200 μl Tris 10 mM were added. The plates were kept under magnetic stirring for 20 min. Cell survival was determined by means of optical density by a Multiskan spectrofluorimeter at 540 nm. The amount of cells killed was calculated as the percentage decrease in sulphorodamine B binding compared to control cultures. The IC50 values (reported in Table 5) were calculated with the “ALLFIT” program. […]

The test system of another data set is U937 leukemia cells. The data set is described as follows: Cytotoxicity extended panel, U937. It counts as cell-based. Conditions: Homo sapiens, U-937, suspension cells, 72 h. Here is the method: as §2
Data set [8] concerns histone H4 acetylation in NCI-H460 cells. Put plainly: Histone H4 acetylation, Western Blot.
Experimental: as §10
In data set [9] the test system is HSC3 head and neck tumour cells. Put plainly: Cytotoxicity extended panel, HSC3. Conditions: Homo sapiens, HSC-3, cell survival, 72 h, sulphorodamine B. It counts as cell-based. Here is the method: (§3) Cells were seeded in 96-well tissue culture plates at approximately 10% confluence. They were allowed to attach and recover for at least 24 h. Compounds of the present invention were then added to each well at various concentrations in order to define cell survival inhibition IC50. The plates were incubated for 72 h at 37° C., after which time they were washed 3 times by removal of the supernatant. 200 μl of PBS and 50 μl of cold 80% TCA were added and the plates were incubated on ice for at least 1 h. TCA was removed and the plates were washed 3 times by immersion in distilled water. They were then dried on paper at 40° C. for 5 min. 200 μl of 0.4% sulphorodamine B in 1% acetic acid were added. The plates were incubated at room temperature for further 30 min. Sulphorodamine B was removed, and the plates were washed 3 times by immersion in 1% acetic acid and were dried on paper at 40° C. for 5 min. Then 200 μl Tris 10 mM were added. The plates were kept under magnetic stirring for 20 min. Cell survival was determined by means of optical density by a Multiskan spectrofluorimeter at 540 nm. The amount of cells killed was calculated as the percentage decrease in sulphorodamine B binding compared to control cultures. The IC50 values (reported in Table 5) were calculated with the “ALLFIT” program.

In data set [10] the test system is MDA-MB231 breast tumour cells. Put plainly: Cytotoxicity extended panel, MDA-MB231. It counts as cell-based. Conditions: Homo sapiens, MDA-MB-231, cell survival, 72 h, sulphorodamine B. Here is the method:
as §3

Data set [11] deals with SKOV-3 ovarian tumour cells. Put plainly: Cytotoxicity extended panel, SKOV-3. The class given is cell-based. Conditions: Homo sapiens, SK-OV-3, cell survival, 72 h, sulphorodamine B. How it is done: as §3
For data set [12], the system named is A2780 ovarian tumour cells. The data set is described as follows: Cytotoxicity extended panel, A2780. It counts as cell-based. Conditions: Homo sapiens, cell survival, 72 h, sulphorodamine B. How it is done: as §3
For data set [13], the system named is MDA-MB436 breast tumour cells. Put plainly: Cytotoxicity extended panel, MDA-MB436. The class given is cell-based. Conditions: Homo sapiens, MDA-MB-436, cell survival, 72 h, sulphorodamine B. How it is done:
as §3

Data set [14] has as its system MCF-7 breast tumour cells. The data set is described as follows: Cytotoxicity extended panel, MCF-7. It counts as cell-based. Conditions: Homo sapiens, MCF7, cell survival, 72 h, sulphorodamine B. Here is the method: as §3
The test system of data set [15] is MV4-11 acute monocytic leukemia cells. The data set is described as follows: Cytotoxicity extended panel, MV4-11. Conditions: Homo sapiens, suspension cells, 72 h. It counts as cell-based. Here is the method:
as §2

In the next data set the test system is HUT78 T-Lymphoma cells. Put plainly: Cytotoxicity extended panel, HUT78. The class given is cell-based. Conditions: Homo sapiens, suspension cells, 72 h. Here is the method:
as §2

The test system of another data set is NCI-H460 NSCLC. Put plainly: Antitumour activity, NCI-H460 xenograft (Example 48). Conditions: 50 mg/10 ml/kg i.p., qd×5/w×3w.

Experimental for NCI-H460 NSCLC: as §5, §6, §7, §8, §9

For `CC(C)(C)OC(=O)N[C@@H](CCCCCS)C(=O)NC1CCCC1` [((S)-1-cyclopentylcarbamoyl-6-mercapto-hexyl)-carbamic acid tert-butyl ester, reference compound], the “HDAC isoform selectivity profile” value in data set [1] was “confirmed its HDAC6 selectivity profile”. In addition, the “activity on HDAC6 compared with the described compounds” value on HDAC6 was “much lower activity on HDAC6 than most of the herein described compounds”.
`CC(=O)SCCCCC[C@H](NC(=O)[C@@H]1CCCC(=O)N1)C(=O)Nc1ccccc1` [Example 14, Thioacetic acid S—{(S)-6-[((S)-6-oxo-piperidine-2-carbonyl)-amino]-6-phenylcarbamoyl-hexyl}ester]: the IC50 in [2] was less than 0.5 µM; in data set [3] it was less than 0.5 µM; in data set [7] it was 0.19 µM; with U937 leukemia cells, 0.049 µM; in data set [9], 0.77 µM; in [10] it was 0.23 µM. Also, the IC50 in [11] was found to be 0.38 µM; in data set [12] it was 0.062 µM; in [13] it was 0.18 µM; in data set [14], 0.19 µM; in data set [15], 0.19 µM; with HUT78 T-Lymphoma cells it was 0.48 µM. Also, the BWL % in [4] stood at 11%; in data set [5], 3%; with NCI-H460 NSCLC, 2%. For the same molecule, the TVI % was 30% in [4], 44% in data set [5] and 36% in the data set with NCI-H460 NSCLC. Also, the “hyper-acetylation of cytoplasmatic α-tubulin” value in [6] is recorded as “comparable to that observed with the reference compound SAHA”. The EC50 in data set [8] (Homo sapiens, NCI-H460, read-out: EC50 μM H4 acetylation) stood at 0.1 µM. In addition, in [8] (NCI-H460 cells, Western Blot, 'as low as'), the “concentration inducing H4 hyper-acetylation” value stood at 100 nM.
